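Exposure lasted 48 hours, with cells grown in 96-well plates and compounds tested at five concentrations. At the TGI there is no net growth.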
How the values were obtained:
Assay in all cases: growth of human tumour cells (NCI), 48 h
A549 NSCLC = test system: A549 NSCLC
HL-60(TB) leukemia = test system: HL-60(TB) leukemia
IGROV1 ovarian = test system: IGROV1 ovarian
LOX IMVI melanoma = test system: LOX IMVI melanoma
MDA-N = test system: MDA-N
NCI-H522 lung = test system: NCI-H522 lung
OVCAR-5 ovarian = test system: OVCAR-5 ovarian
SK-MEL-28 melanoma = test system: SK-MEL-28 melanoma
SR leukemia = test system: SR leukemia
CCRF-CEM leukemia = test system: CCRF-CEM leukemia
NCI-H226 lung = test system: NCI-H226 lung
SNB-75 CNS = test system: SNB-75 CNS

Row | Compound | TGI (A549 NSCLC) [µM] | TGI (HL-60(TB) leukemia) [µM] | TGI (IGROV1 ovarian) [µM] | TGI (LOX IMVI melanoma) [µM] | TGI (MDA-N) [µM] | TGI (NCI-H522 lung) [µM] | TGI (OVCAR-5 ovarian) [µM] | TGI (SK-MEL-28 melanoma) [µM] | TGI (SR leukemia) [µM] | TGI (CCRF-CEM leukemia) [µM] | TGI (NCI-H226 lung) [µM] | TGI (SNB-75 CNS) [µM]
1 | COC1=CC(=O)c2c(n[nH]c2CCNC(=O)OCc2ccccc2)C1=O | 40.4 | 41.9 | 29 | 23.7 | 4.61 | 21.1 | 32.1 | 24.5 | 65.5 |  |  | 
2 | COc1cccc(N2C(=O)C3c4[nH]c5ccc(C)cc5c4C4CCC(C)CC4C3C2=O)c1 (stereo unspecified) | > 100 | 25.3 | > 100 | > 100 | > 100 |  | > 100 | > 100 |  | > 100 | > 100 | 
3 | COc1ccc(-c2cc(=O)c3ccc(F)cc3[nH]2)cc1 | > 100 | > 100 | > 100 | > 100 |  | > 100 | > 100 | > 100 | > 100 | > 100 | > 100 | > 100
4 | Oc1ccc2ccccc2c1NCn1nc(CCCCCCCCc2nn(CNc3c(O)ccc4ccccc34)c(=S)o2)oc1=S | > 100 |  | > 100 |  | > 100 | > 100 | > 100 | > 100 |  |  | > 100 | > 100
5 | C=CCN(N=O)C(=O)N(CCCCC(NC(C)=O)C(=O)NCc1ccccc1)Cc1ccccc1 (stereo unspecified) | > 100 | 43.5 | > 100 | 55.3 |  | 39.9 | > 100 | > 100 |  | 80.4 | 60.7 | > 100
6 | CCOC(=O)C(C)c1nc2cc(C(F)(F)F)ccc2[nH]c1=O (stereo unspecified) | > 100 | > 100 |  | > 100 | > 100 |  | > 100 | > 100 |  | > 100 | > 100 | > 100
7 | O=C1COc2cc3c(cc2N1)SCCC(=O)N3 | > 100 | > 100 | > 100 |  |  | > 100 |  | > 100 | > 100 | > 100 | > 100 | > 100
8 | CC1CN=C(NS(=O)(=O)c2cc(C(=O)Nc3ccccc3)c(Cl)cc2S)NN1 (stereo unspecified) | > 100 | > 100 | 83.3 | > 100 | 71.5 | 76.1 | > 100 | > 100 | > 100 | > 100 | > 100 | 
9 | O=C(Nc1ccccc1[N+](=O)[O-])C(=O)C(C(=O)c1ccccc1-c1ccccc1)C1OC(=O)c2ccccc21 (stereo unspecified) | 72.6 | 47.6 | 51.3 | 36 |  | 25.3 | 36.8 | 37.7 | 49 | 76.1 | 21.3 | 53.4
10 | O=C(NN1C(=O)C(Cl)C1c1cccc(Cl)c1)c1ccccc1O (stereo unspecified) | > 100 | > 100 | > 100 | > 100 |  | > 100 |  | > 100 |  | > 100 | > 100 | > 100

Source: PubChem BioAssay (NCI)
